Results published in patent US20140179681A1, “METHODS AND COMPOSITIONS OF TARGETED DRUG DEVELOPMENT” (priority 2010, published 2014).
Structures can show the parent of a compound that is named as a salt. Where two headings read alike, the source gives them in different places.

How the values were obtained:
EGFR = biological target: T1, EGFR (Homo sapiens, UniProt P00533); assay: EGFR in-cell Western (ICW) screening protocol (EGFR inhibition assay); type: cell-based; design: ICW 1 / ICW 2 / ICW Avg: unit not given here; conditions: for ICW Avg / ICW 1 / ICW 2: ICW assay; for ICW Avg: average of runs 1 and 2; for ICW 1: run 1; for ICW 2: run 2; for ICW assay: Table 10, % Inhibition of EGF dependent EGFR phosphorylation in A431 cells, compound 125 μM in assay
T1 construct: host or cells: A431
In short: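 In-cell Western read-out: fixed A431 cells were co-stained for total EGFR and phospho-EGFR (Tyr1173; some runs Tyr1045). Before fixation, cells were serum-starved for 2 h, exposed to compound for 4 h, then given EGF for 10 min, usually at 10 ng/ml final (6.6 or 12.5 ng/ml in some runs).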

[1] = test system: epithelial carcinoma A431 cell line; assay: MTT Cell Proliferation Assay, A431 cells; type: cell-based; conditions: for MTT Assay IC50(A431/MDBK): ratio in parentheses: ratio MDBK IC50 / A431 IC50 (selectivity)
In short: (§1)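 Each concentration ran in quadruplicate across duplicate plates, with compounds serially diluted in DMSO and delivered at 0.5% DMSO in 0.5% FBS medium for 3 days.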

MDBK line = assay: MTT Cell Proliferation Assay, MDBK cells; type: cell-based, bovine
In short: as §1

[2] = Homo sapiens, A-431, A431 cells, first value of cell, read-out: MTT Assay IC50(A431/MDBK): A431
[3] = Bos taurus, MDBK, MDBK cells, second value of cell, read-out: MTT Assay IC50(A431/MDBK): MDBK
[4] = first value of 'a/b (c)', taken as A431 cells, read-out: MTT Screen, first value of cell
[5] = second value of 'a/b (c)', taken as MDBK cells, read-out: MTT Screen, second value of cell
[6] = Homo sapiens, A-431, first value of 'a/b (c)', taken as A431 cells, read-out: MTT Screen, first value of cell
[7] = Bos taurus, MDBK, second value of 'a/b (c)', taken as MDBK cells, read-out: MTT Screen, second value of cell
[8] = Homo sapiens, A-431, 72 h, Table 10, first of x/y(ratio): A431, three day treatment, unit not printed (doses in μM), read-out: MTT assay (first value)
[9] = Bos taurus, MDBK, 72 h, Table 10, second of x/y(ratio): MDBK, three day treatment, unit not printed (doses in μM), read-out: MTT assay (second value)

T1 sequence (P00533 25-1210): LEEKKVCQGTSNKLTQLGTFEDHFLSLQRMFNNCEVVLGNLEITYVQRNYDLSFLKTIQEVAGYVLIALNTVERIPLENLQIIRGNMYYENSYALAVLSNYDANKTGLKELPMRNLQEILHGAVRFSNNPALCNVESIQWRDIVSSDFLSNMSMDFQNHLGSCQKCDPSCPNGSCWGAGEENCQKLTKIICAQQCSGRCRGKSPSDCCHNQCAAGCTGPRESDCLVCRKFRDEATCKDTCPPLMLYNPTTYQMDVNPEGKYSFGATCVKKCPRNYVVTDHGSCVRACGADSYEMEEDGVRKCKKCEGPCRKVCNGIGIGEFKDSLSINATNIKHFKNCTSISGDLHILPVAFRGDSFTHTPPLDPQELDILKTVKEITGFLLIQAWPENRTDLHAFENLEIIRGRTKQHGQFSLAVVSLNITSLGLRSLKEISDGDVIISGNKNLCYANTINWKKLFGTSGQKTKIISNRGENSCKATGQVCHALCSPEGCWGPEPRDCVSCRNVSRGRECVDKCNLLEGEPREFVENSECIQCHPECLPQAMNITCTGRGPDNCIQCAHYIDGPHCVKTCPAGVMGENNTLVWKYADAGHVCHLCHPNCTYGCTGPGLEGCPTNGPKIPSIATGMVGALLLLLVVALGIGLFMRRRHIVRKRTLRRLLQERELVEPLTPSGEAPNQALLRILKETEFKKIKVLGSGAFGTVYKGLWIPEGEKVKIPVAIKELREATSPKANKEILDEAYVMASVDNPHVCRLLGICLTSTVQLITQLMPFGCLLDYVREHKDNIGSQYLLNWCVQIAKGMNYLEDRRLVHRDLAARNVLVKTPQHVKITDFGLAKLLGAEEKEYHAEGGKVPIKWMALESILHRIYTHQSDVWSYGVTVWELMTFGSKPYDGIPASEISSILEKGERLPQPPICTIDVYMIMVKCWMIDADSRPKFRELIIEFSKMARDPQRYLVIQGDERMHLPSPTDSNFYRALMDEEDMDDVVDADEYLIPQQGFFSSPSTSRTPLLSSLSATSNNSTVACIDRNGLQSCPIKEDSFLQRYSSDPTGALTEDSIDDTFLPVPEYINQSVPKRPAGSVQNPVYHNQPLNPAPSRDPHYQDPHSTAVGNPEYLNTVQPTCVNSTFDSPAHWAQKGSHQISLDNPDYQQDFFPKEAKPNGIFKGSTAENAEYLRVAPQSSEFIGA

SMILES | ICW Avg (EGFR) | ICW 1 (EGFR) | ICW 2 (EGFR) | IC50 [1, 2] | MTT Assay IC50(A431/MDBK): ratio in parentheses [1] | IC50 (MDBK line; [3]) | ICW Screen (ICW Inhibition) (EGFR) | also measured
Cc1ccc2nc(Nc3nc(=O)c(Cc4ccccc4)c(C)[nH]3)nc(C)c2c1 [compound 11294] | 33.47 | 29.81 | 37.13 | 6.43 µM | 3.08 | 19.8 µM |  | 
O=C(NC(=S)Nc1ccc(S(=O)(=O)Nc2ccccc2)cc1)C1CC1 [AD4-11413] |  |  |  |  |  |  | 46.23 | IC50 [1, 4]: 31.4 µM; IC50 (MDBK line; [5]): 29.8 µM
C=CCc1c(C)nc(Nc2nc(C)c3cccc(OC)c3n2)[nH]c1=O [compound 12746] | 32.65 | 18.02 | 47.28 | 17.9 µM | 0.67 | 11.9 µM |  | 
CC1CCN(S(=O)(=O)c2ccc(NC(=S)NC(=O)CCC(=O)OCCc3ccccc3)cc2)CC1 [AD4-12153] |  |  |  |  |  |  | 31.36 | IC50 [1, 6]: 15.6 µM; IC50 (MDBK line; [7]): 21.8 µM
COCc1cc(=O)nc(Nc2nc(C)c3cc(C)cc(C)c3n2)[nH]1 [12644 + TFA] | 25.06 | 16.45 | 33.67 |  | 0.66 |  |  | IC50 ([1]; A431 cells, first value of cell, read-out: MTT Assay IC50(A431/MDBK): A431): 46.9 µM; IC50 (MDBK line; MDBK cells, second value of cell, read-out: MTT Assay IC50(A431/MDBK): MDBK): 30.9 µM
CC(=O)c1cccc(NC(=S)Nc2ccc(S(=O)(=O)N3c4ccc(F)cc4CCC3C)cc2)c1 (stereo not shown) [AD4-12825] |  |  |  |  |  |  |  | ICW assay (EGFR): 26.7866; IC50 [1, 8]: 6.78 µM; IC50 (MDBK line; [9]): 5.46 µM
CCCc1c(C)nc(Nc2nc(C)c3cc(C)c(C)cc3n2)[nH]c1=O [12614 + TFA] | 27.21 | 20.34 | 34.09 | 19.4 µM | 0.39 | 7.56 µM |  | 
Cc1cc(C)c2nc(Nc3nc(CSc4nnc(C)s4)cc(=O)[nH]3)nc(C)c2c1 [compound 11476] | 33.91 | 36.71 | 31.11 | 17.9 µM | 0.74 | 13.3 µM |  | 
O=S(=O)(Nc1ccc(Cl)cc1)c1ccc(NC(=S)Nc2ccccc2C(F)(F)F)cc1 [AD4-12435] |  |  |  |  |  |  |  | ICW assay (EGFR): 41.4281; IC50 [1, 8]: 6.67 µM; IC50 (MDBK line; [9]): 6.15 µM
Cc1ccc(NS(=O)(=O)c2ccc(NC(=S)NC(=O)COc3ccc(Cl)cc3C)cc2)c(C)c1 [AD4-12152] |  |  |  |  |  |  | 50.528 | IC50 [1, 6]: 21 µM; IC50 (MDBK line; [7]): 16.2 µM
O=S(=O)(Nc1ccccc1)c1ccc(NC(=S)Nc2ccc(Cl)c(Cl)c2)cc1 [AD4-12833] |  |  |  |  |  |  |  | ICW assay (EGFR): 115.634; IC50 [1, 8]: 5.94 µM; IC50 (MDBK line; [9]): 5.96 µM
COc1ccc(NS(=O)(=O)c2ccc(NC(=S)NC(=O)C(C)C)cc2)cc1 [AD4-11971] |  |  |  |  |  |  | 44.908 | IC50 [1, 6]: 41.5 µM; IC50 (MDBK line; [7]): 41.1 µM
CCCc1c(-c2ccccc2)nc(Nc2nc(C)c3ccccc3n2)[nH]c1=O [compound 12609] | 41.04 | 42.02 | 40.07 | 11.2 µM | 2.10 | 23.5 µM |  | 
CN(c1ccccc1)S(=O)(=O)c1ccc(NC(=S)NC(=O)/C=C/c2ccc(F)cc2)cc1 [AD4-12280] |  |  |  |  |  |  | 41.439 | IC50 [1, 6]: 10.2 µM; IC50 [1, 4]: 5.76 µM; IC50 (MDBK line; [7]): 17.7 µM; IC50 (MDBK line; [5]): 21.2 µM
CCCCc1ccc(NC(=S)Nc2ccc(S(=O)(=O)Nc3ccc(Cl)cc3)cc2)cc1 [AD4-12501] |  |  |  |  |  |  |  | ICW assay (EGFR): 71.3823; IC50 [1, 8]: 4.06 µM; IC50 (MDBK line; [9]): 4.06 µM
CCCCc1c(C)nc(Nc2nc(C)c3cc(C)ccc3n2)[nH]c1=O [compound 11498] | 49.32 | 42.15 | 56.48 | 5.39 µM |  | 8.77 µM |  | 
COc1cccc(NC(=S)Nc2ccc(S(=O)(=O)Nc3ccc(Cl)cc3)cc2)c1 [AD4-12411] |  |  |  |  |  |  |  | ICW assay (EGFR): 34.0556; IC50 [1, 8]: 6.7 µM; IC50 (MDBK line; [9]): 5.18 µM
COc1ccc(CC(=O)NC(=S)Nc2ccc(S(=O)(=O)Nc3ccc(C)c(C)c3)cc2)cc1 [AD4-11418] |  |  |  |  |  |  | 34.067 | IC50 [1, 6]: 11.9 µM; IC50 (MDBK line; [7]): 10.2 µM
